From paper doi:10.1101/2020.06.18.159418v1 (biorxiv, 2020)

Assays:
Format in all cases: binding
HuPrP90-231 [1] = molecular target: T1, HuPrP90-231 (Homo sapiens, UniProt P04156)
T1 construct: gene PRNP

HuPrP90-231 [2] = molecular target: T1, HuPrP90-231; experiment: biochemical
HuPrP23-231 = molecular target: T2, HuPrP23-231 (Homo sapiens, UniProt P04156); details: 0.3-1 mM compound, 20 mM HEPES pH 7.4, 150 mM NaCl, 3% DMSO, 298 K
T2 construct: gene PRNP

**Q.** For `Cc1nc2cc(Cl)c(Cl)cc2[nH]1` [compound 1, 5,6-dichloro-2-methyl-1H-benzimidazole], which “decrease in melting temperature” value (HuPrP90-231 [1]) is on record?
**A.** ~ 0.2 °C

**Q.** What about the Kd (HuPrP90-231 [2]) of the same compound?
**A.** > 1000 µM

**Q.** And the “1H-15N TROSY NMR chemical shift perturbation” value (HuPrP23-231)?
**A.** we observed similar resonance shifts in the full-length protein HuPrP23-231
